Source: patent publication US20070258899A1, “Diagnostic and therapeutic agents” (KARYON-CTT LTD, priority 2006, published 2007)
Starred links: 1 amine or outer side, 2 acyl side, 3 side chain; linkers in the order of their positions; H or OH if unused. Positions of bridges follow the written chain, without caps; N, C: chain ends. Non-standard residues stand in square brackets, D forms with d. Residues, ends and D or L forms follow the SMILES beside them. No end group written: not given here. Cysteamide = C(CS[*:3])N[*:1]; AEEEA = NCCOCCOCCOCC(=O)O

Tests used:
LoVo cell line = assay: Cytotoxicity assay (MTT); type: cell-based, human
Method: […] The measurement of cell viability was done with MTT (Thiazolyl blue, Sigma M-5655) tetrazolium salt. MTT is cleaved to water-insoluble formazan dye by the “succinate-tetrazolium reductase” system, which is active only in viable cells. After formazan was solubilized by 10% SDS-0.01 M HCl, it was quantified in an ELISA spectrometer (ThermoLabsystems Multiscan EX) at 560 nm. CuSAO2 [trans-bis(salicylaldoximato)copper(II)] 7.5 μg/ml was used as a positive control for 100% toxicity.
Procedure. Cells were trypsinized from the cell culture dish (ø9 cm) with 1 ml of TE for 1-5 minutes and moved to a 50 ml Falcon tube. After this the volume was increased to 20 ml of cell line specific medium and cells were transferred to a Bürker chamber and diluted in medium to a concentration of 2500-3500 cells/100 μl depending on cell line. […]
Next day 40 μl of medium was removed from all wells except from the ones with only medium and one column with cells. […] The next day the cell morphology was analyzed with a microscope. […]
The next day, the MTT assay described above was performed. The viable count (v.c.) was calculated as: [formula]

[1] = system: murine endothelial cell line SVEC4-10; assay: Cell binding assay to immobilized targeting agents (control cell line); type: cell-based, mouse; conditions: control cell line SVEC4-10; wells coated at 30 μg/ml; 75000 cells, 30 minutes at 37° C.; MTT detection
Method: The mouse vascular endothelial cell line SVEC4-10, called herein also “SVEC4-10”, has been described previously by O'Connell et al. in J. Immunol., 1990, 144: 521-525. The cell line was cultured in DMEM medium adjusted to contain 2 mM L-glutamine, 1% penicillin/streptomycin, and 10% fetal bovine serum.
(§1) Preparation of plates for assays. Wells of Reacti-Bind Maleimide activated clear strip plate (Pierce, Prod#. 15150) were coated with targeting agents of this invention at a concentration of 30 μg/ml. The incubation was carried out of overnight at 20° C. The binding buffer containing unbound peptide was removed from the wells.
(§2) The wells were blocked with blocking buffer (0.5% BSA, 0.05% Tween20 in phosphate buffer saline (PBS). PBS was prepared as follows: 40 g of NaCl, 1 g of KCl, 7 g of Na2HPO4×2H2O and 1 g of KH2PO4 were dissolved in 1000 ml of deionized H2O. Blank wells as controls were prepared by treating empty wells with blocking buffer. The plates were incubated 1 hour 30 min at 20° C. After incubation the plate was washed three times with PBS, pH 7.4.
(§3) Cell binding assay. 75000 cells in volume of 150 μl of medium were added into coated wells and were incubated for 30 minutes at 37° C. After cell binding, the wells were washed with PBS for 30 minutes. […] On following day the absorbance of plate was measured at 560 nm with ELISA-reader (ThermoLabsystems, Multiskan EX). […]

[2] = system: C8161T melanoma cell line; assay: Cell binding assay to immobilized targeting agents; type: cell-based, human; conditions: wells coated at 30 μg/ml, 75000 cells, 30 minutes at 37° C., MTT detection
Method: The human melanoma cell line C8161 has been described previously by Welch et al. in Int. J. Cancer, 1991, 47: 227-237. A more metastatic cell line C8161T, called herein also “C8161T”, was developed by culturing cells from a subcutaneous melanoma tumor developed after inoculation of C8161 melanoma cells on the flank of a nude mouse. The cell line was cultured in DMEM medium adjusted to contain 2 mM L-glutamine, 1% penicillin/streptomycin, and 10% fetal bovine serum.
as §1, §2
Cell binding assay. […] On following day the absorbance of plate was measured at 560 nm with ELISA-reader (ThermoLabsystems, Multiskan EX). […]

[3] = system: mouse fibroblast cell line NIH3T3; assay: Cell binding assay to immobilized targeting agents (control cell line); type: cell-based; conditions: wells coated at 30 μg/ml, 75000 cells, 30 minutes at 37° C., MTT detection
Method: The mouse fibroblast line NIH3T3, called herein also “NIH3T3”, has been described previously by Koga et al. in Gann, 1979, 70: 585-591. The cell line was cultured in DMEM medium adjusted to contain 2 mM L-glutamine, 1% penicillin/streptomycin, and 10% fetal bovine serum.
as §1, §2, §3

[4] = system: HSC-3 oral cancer cell line; assay: Cell binding assay to immobilized targeting agents; type: cell-based, human; conditions: wells coated at 30 μg/ml, 75000 cells, 30 minutes at 37° C., MTT detection
Method: The human oral squamous cell carcinoma line HSC-3, called herein “HSC-3” (JCRB Cell Bank 0623, National Institute of Health Sciences, Japan) was cultivated in 1:1 DMEM and Ham's F 12 medium containing 10% FBS, 1% penicillin/streptomycin, L-glutamate and sodium pyruvate and 0.4 ng/ml hydrocortisone.
as §1, §2, §3

HCT-15 cell line = assay: Cell binding assay to immobilized targeting agents; type: cell-based, human; conditions: wells coated at 30 μg/ml, 75000 cells, 30 minutes at 37° C., MTT detection
Method: The human colorectal cancer HCT-15 cell line (ATCC: CCL-225), called herein also “HCT-15”, was cultured in RPMI 1640 medium with 2 mM L-glutamine adjusted to contain 1.5 g/L sodium bicarbonate, 4.5 g/L glucose, 10 mM HEPES, and 1.0 mM sodium pyruvate, 1% penicillin/streptomycin, 10% fetal bovine serum.
as §1, §2, §3

HCT-15-LM1 cell line = assay: Cell binding assay to immobilized targeting agents; type: cell-based, human; conditions: wells coated at 30 μg/ml, 75000 cells, 30 minutes at 37° C., MTT detection
Description: The colorectal cancer cell line HCT-15-LM1 was developed as follows. The cell culture was started with cancer cells from lung metastases which had developed after injection of human colorectal cancer HCT-15 cells into the bloodstream of a mouse. The inoculation procedure was then repeated with HCT-15-LM1 cells leading to the establishment of another metastatic cell line, HCT-15-LM2.
as §1, §2
Cell binding assay. 75000 cells in volume of 150 μl of medium were added into coated wells and were incubated for 30 minutes at 37° C. […] On following day the absorbance of plate was measured at 560 nm with ELISA-reader (ThermoLabsystems, Multiskan EX). […]

[5] = system: lung metastases of colorectal cancer patients; assay: Bio-panning of phage display library on clinical tumor samples; type: binding, human; conditions: phage-displayed CX7C library; ex vivo panning round three
Description: Phage display library. Standard procedures according to Smith and Scott (ibid.) were used. Phage display library used for screening of clinical samples was cloned in fUSE5 vector and was of the cyclic structure CX7C. The E. coli strain K91kan was used as host for phage amplification.
Phage display on clinical tumor samples. Tissue samples were surgically removed from lung metastases of colorectal cancer patients. Part of the sample was taken for pathological examination, rest was placed in ice cold DMEM-PI (Dulbecco's medium containing protease inhibitors PI; 10 mM PMSF (Phenyl-methyl-sulphonyl-fluoride), Aprotinin (10 mg/ml) Leupeptin (10 mg/ml)). Tissue samples were minced with a razor blade in a small cell culture plate in 1 ml of DMEM containing protease inhibitors. The samples were transferred to an eppendorf tube and washed with 1 ml DMEM-PI.
Samples were centrifuged at 5000 rpm for 4 min and were then incubated with […] transducing units of phage in 1 ml DMEM-PI at 25° C. for 15 min.
1 ml K91kan bacteria, OD600: 1-1.5, in LB containing 100 μg/ml kanamycin (kan) were infected with the washed pellet containing selectively attached phage particles at 25° C. for 25 min. […]
Then the bacteria were pelleted at 5000 rpm for 15 min. […] For the next rounds of bio-panning of clinical samples the titre of the TBS phage stock was determined as described above. […]

Athymic nude mice = assay: In vivo toxicity study; conditions: 1 mg i.v. into tail vein; observed 30 min after injection and 15 min on the following day
Method: 1 mg of targeting unit HP203 (described in Example 2) was injected i.v. into the tail vein of three Athymic nude mice in a volume of 100 μl of sterile physiological saline. The behavior of mice was observed during 30 min right after injection and during 15 min on the following day (comparison to non-injected mouse).

Molecule	binding of cells to immobilized targeting agent (absorbance at 560 nm) [1]	binding of cells to immobilized targeting agent (absorbance at 560 nm) [2]	binding of cells to immobilized targeting agent (absorbance at 560 nm) [3]	binding of cells to immobilized targeting agent (absorbance at 560 nm) [4]	binding of cells to immobilized targeting agent (absorbance at 560 nm) (HCT-15 cell line)	binding of cells to immobilized targeting agent (absorbance at 560 nm) (HCT-15-LM1 cell line)	Peptides selectively binding to lung tumors (enriched in bio-panning) [5]	other results
[Cu+2].[O-]c1ccccc1C=NO.[O-]c1ccccc1C=NO [CuSAO2, trans-bis(salicylaldoximato)copper(II), reference compound]	–	–	–	–	–	–	–	cell killing (LoVo cell line; 7.5 μg/ml, positive control): 100%
Ac-aYGFVWGEE-(Teg-Glu)2-EAT [MJ012]	significantly less binding	bind selectively	significantly less binding	bind selectively	bind selectively	bind selectively	–	–
CYGFLWGQC	–	–	–	–	–	–	selectively binding	–
a*YGFVWGEE*-(Teg-Glu)2-EAT ([dA]YGFVWGEE[AEEEA]E[AEEEA]E-Cysteamide; lactam N-9; not fully specified; printed as a*YGFVWGEE*-(Teg-Glu)2-EAT) [MJ013]	significantly less binding	bind selectively	significantly less binding	bind selectively	bind selectively	bind selectively	–	–
CC(C)C[C@@H]1NC(=O)[C@H](Cc2ccccc2)NC(=O)CNC(=O)[C@H](Cc2ccc(O)cc2)NC(=O)[C@@H](NC(=O)[C@H](C)NC(=O)CNC(=O)[C@H](CC(=O)O)NC(=O)[C@H](C)N)CSSC[C@@H](C(=O)NCCOCCOCCOCC(=O)NCCOCCOCCOCC(=O)NCCOCCOCCOCC(N)=O)NC(=O)[C@H](CCC(N)=O)NC(=O)CNC(=O)[C@H](Cc2c[nH]c3ccccc23)NC1=O [HP203] (H-ADGACYGFLWGQC[AEEEA][AEEEA][AEEEA]-NH2; disulfide 5-13; N-terminus assumed)	–	–	–	–	–	–	–	toxicity for the tested cell line (viable count, MTT) (LoVo cell line; 5 μg/ml and 138 μg/ml, 24 h, 48 h, 72 h): non-toxic; toxic effect on mice (behavior observed) (Athymic nude mice): did not have any toxic effect
CYGFVWGEC (disulfide 1-9 (inferred))	–	–	–	–	–	–	selectively binding	–
